Consider 21 molecules from patent US5017723A, “Substituted ethylamines, their preparation process, their use as medicine and their synthesising agents” (Jouveinal S.A., priority 1990, dated 1991).

The test system of test [1] is convulsion induced by picrotoxine in mice. As to the kind of experiment: Protection against picrotoxine-induced convulsion (suppression of the tonic extension phase). The settings on record: for responders at 50 mg/kg / responders at 100 mg/kg / ED50: Mus musculus; for responders at 50 mg/kg: 0.5 h, read-out: i.p.: % prot. (percentage of protected animals), 50 mg/kg i.p., picrotoxine 24 mg/kg i.p. 30 min later; for responders at 100 mg/kg: 1 h, read-out: p.o.: % prot. (percentage of protected animals), 100 mg/kg p.o., picrotoxine 24 mg/kg i.p. 60 min later. Format: in vivo, male Swiss mice. An excerpt: The psychotropic properties of the compounds have been determined by the protection of the induced convulsion by picrotoxine for mice, which is achieved by the method derived from that of Krall et al., "Epilepsia", 1978, 19, p. 409-428.
The administration of picrotoxine caused a convulsive crisis in the animal characterised by a myoclonic extension syndrome followed by the extension of the limbs causing the animal to die. Certain substances, particularly those active on the complex GABA/benzodiazepines/Cl-ionophore makes it possible to protect the animals from this convulsive crisis.
In practice the study is carried out on batches of 10 male "Swiss" mice weighing approximately 20 g, which are administered with the product to be studied in aqueous solution either by intraperitoneal route (i.p.) at the rate of 50 mg/kg and in a volume of 0.2 ml of solution per animal, or by oral route (p.o) in a volume of 2.0 ml of solution per animal.
An injection of a solution of picrotoxine at the rate of 24 mg/kg in a volume of 0.2 ml per animal is then administered by interperitoneal route, either 30 minutes after administering the product by interperitoneal route or 60 minutes after administering the product by oral route. The dose of the product injected causing a clonic crisis, which results in untreated animals dying. The suppression of the extension tonic phase in the animals treated under the conditions of the test is observed. The results are expressed:
either in percentages of protected animals of this phase to the reaction of 50 mg/kg of the compound of the study administered by i.p. route or 100 mg/kg by p.o route,
or in DE50 for each of these routes, which is the efficient dosage of the test compound expressed in mg/kg protecting 50% of the animals of this extension phase. The significant value of the results being generally indicated in the following manner:
* Significant result at p<0.05
** Significant result at p<0.01
*** Significant highly significant at p<0.001.

Another test deals with opiated mu receptor (Cavia porcellus, UniProt A0ACM8Q262). Format: binding, guinea pig. The procedure: (§1) The analysis is carried out in accordance with the technique described by F. Roman et al. in J. Pharm. Pharmcol. 1987, 39, p. 404-407 which consists of analysing the displacement of specific radioactive ligands of the opiated mu, delta and kappa sub receptors by the action of the test products on the membranous receptors of a guinea pig.

The target in the next test is T1, opiated delta receptor (Cavia porcellus, UniProt A0A286XTF2).
T1 construct: membranous receptors of a guinea pig; from tissue
Kind of test: Displacement of specific radioactive ligands, opiated delta receptor. Type of test: binding, guinea pig. The settings on record: inhibition of 50% of radioligand bonds; read-out: CI50 affinity delta rec. The procedure: as §1

In another test the test system is bladder of the rat. As to the kind of experiment: Transvesical cystomanometry on wide awake rat (urological activity). Format: in vivo, female rat. The settings on record: for activity on the urinary tract compared to the reference compounds (in words): compared to Dicyclomine and Baclofen; for change in vivo at 5 mg/kg / change in vivo at 2.5 mg/kg: Rattus norvegicus, iv; for change in vivo at 5 mg/kg: 5,0 mg/kg i.v. Here is the method:
Studies by a similar method of operation, the compounds of the invention (I.A) which show a mu and kappa affinity also have an activity on certain functional parameters of the bladder of the rat which justifies their interest in the treatment of dysfunctions in the urinary tract.
The study carried out consists of transvesical cystomanometry on a wide awake rat. The following was measured during the storage and emission phases of urine under continuous intervesical perfusion of sterile physiological serum:
the "threshold pressure", which is the intervesical pressure immediately preceding the contraction phase of the detrusor
the volume of each urinary emission.
The technique used in the female rat consisted of preparing the animals 48 hours before the actual experiment by effecting the implantation of two catheters in the apex of the bladder and one catheter in the left-hand jugular vein under anaesthetic, with the external end of these catheters being protected and held by a sticking plaster corset.
The animals were placed in suitable cages at the time of the test, which were equipped so as to collect and measure the urine. For each animal one vesical catheter was connected to a pressure sensor, the other to a perfusor which supplied 0.2 ml/min. of sterile physiological serum continuously.
The intravesical pressure was measured continuously during the perfusion and it was possible to observe:
a filling phase of the bladder during which the pressure increased progressively,
a sudden rising phase of this pressure during the contraction of the detrusor: the "threshold" pressure which is the pressure observed just before the pressure of the contraction phase. This threshold pressure was raised in the same way as the urinary volume at each urination.
The study consisted of observing the changes in these parameters by the action of the products (IA) which were administered in solution by intravenous route by means of the catheter placed in the left jugular vein.
Dicyclomine and Baclofen which have been considered for the treatment of hyperactive bladders (Drugs of Today, Vol. 24, no. 5, 1988, p. 337-348) were also used in this test in the form of comparison products.

The target in the next test is T2, opiated kappa receptor (Cavia porcellus, UniProt P41144).
T2 construct: membranous receptors of a guinea pig; from tissue
Kind of test: Displacement of specific radioactive ligands, opiated kappa receptor. Format: binding, guinea pig. The settings on record: inhibition of 50% of radioligand bonds; read-out: CI50 affinity kappa rec. The procedure:
as §1

The mark [2] stands for this setting: ip, * p<0.05, ** p<0.01, *** p<0.001.
Setting [3] is: po, * p<0.05, ** p<0.01, *** p<0.001.
Setting [4] is: inhibition of 50% of radioligand bonds; read-out: CI50 affinity mu rec.
The mark [5] stands for this setting: read-out: % variation pressure threshold.

Read-outs that look alike come from different tables or passages of the source.

opiated mu receptor, sequence (A0ACM8Q262 1-400): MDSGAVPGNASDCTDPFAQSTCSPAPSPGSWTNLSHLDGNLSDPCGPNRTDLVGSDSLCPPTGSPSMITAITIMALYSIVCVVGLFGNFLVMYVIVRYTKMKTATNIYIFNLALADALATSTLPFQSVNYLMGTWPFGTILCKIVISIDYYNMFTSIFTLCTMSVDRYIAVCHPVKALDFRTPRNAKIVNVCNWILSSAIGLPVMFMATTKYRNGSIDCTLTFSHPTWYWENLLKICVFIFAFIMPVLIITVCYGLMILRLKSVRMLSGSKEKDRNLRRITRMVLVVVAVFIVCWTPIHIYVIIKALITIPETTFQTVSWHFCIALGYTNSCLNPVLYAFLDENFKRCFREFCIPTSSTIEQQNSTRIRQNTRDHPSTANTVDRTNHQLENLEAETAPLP
T1 sequence (A0A286XTF2 1-366): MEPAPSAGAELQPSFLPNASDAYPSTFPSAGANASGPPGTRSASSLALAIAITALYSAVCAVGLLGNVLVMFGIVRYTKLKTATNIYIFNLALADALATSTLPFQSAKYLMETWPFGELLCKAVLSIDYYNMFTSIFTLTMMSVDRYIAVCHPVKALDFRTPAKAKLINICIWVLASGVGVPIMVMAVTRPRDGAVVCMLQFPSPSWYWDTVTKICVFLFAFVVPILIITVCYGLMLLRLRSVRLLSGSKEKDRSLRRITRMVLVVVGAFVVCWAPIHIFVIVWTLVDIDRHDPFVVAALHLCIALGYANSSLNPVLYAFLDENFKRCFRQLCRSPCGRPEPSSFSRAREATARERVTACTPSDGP
T2 sequence (P41144 whole entry): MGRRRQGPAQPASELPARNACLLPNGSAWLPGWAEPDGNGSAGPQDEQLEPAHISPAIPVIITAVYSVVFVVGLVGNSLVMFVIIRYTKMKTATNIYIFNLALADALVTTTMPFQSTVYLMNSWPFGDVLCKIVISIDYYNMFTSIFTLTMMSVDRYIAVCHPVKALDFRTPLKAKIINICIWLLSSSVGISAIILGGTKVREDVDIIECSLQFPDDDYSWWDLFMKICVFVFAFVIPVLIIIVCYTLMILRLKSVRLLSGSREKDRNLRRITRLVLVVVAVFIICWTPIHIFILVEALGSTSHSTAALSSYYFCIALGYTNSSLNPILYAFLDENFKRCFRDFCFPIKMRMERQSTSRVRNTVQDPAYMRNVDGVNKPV

Take `CCC(CC=Cc1ccccc1)(c1ccc(Cl)cc1)N(C)C` (centres unmarked) [Example 31, a-cinnamyl-N,N-dimethyl-a-ethyl-p.chlorobenzylamine]: in test [1] (setting [2]), the responders at 50 mg/kg was determined as 100%. The responders at 100 mg/kg in test [1] (setting [3]) was found to be 50%. In addition, the IC50 amounted to 80 nM on opiated mu receptor (setting [4]), 1340 nM at opiated delta receptor and 210 nM at opiated kappa receptor. Besides, in the test on bladder of the rat, the “activity on the urinary tract compared to the reference compounds (in words)” value is listed as “important activity”.

As for `CCC(CC=Cc1ccc(Cl)c(Cl)c1)(NC)c1ccc(Cl)cc1` (centres unmarked) [Example 26, a-(3' ,4'-dichloro)cinnamyl-a-ethyl-N-methyl-p.chlorobenzylamine], the IC50 is 28 nM on opiated mu receptor (setting [4]), 1070 nM at opiated delta receptor and 458 nM on opiated kappa receptor. For the same molecule, the change in vivo at 5 mg/kg was 229% with bladder of the rat (setting [5]) and 93% in the test with bladder of the rat (read-out: % variation volume).

For the molecule `CCN(CC)CCOC(=O)C1(C2CCCCC2)CCCCC1` [Dicyclomine, reference compound], the change in vivo at 2.5 mg/kg in the test on bladder of the rat (2,5 mg/kg i.v., read-out: % variation pressure threshold) stood at 28%; in the test with bladder of the rat (2,5 mg/kg i.v., read-out: % variation volume), 20%.

`NCC(CC(=O)O)c1ccc(Cl)cc1` (centres unmarked) [Baclofen, reference compound]: the change in vivo at 2.5 mg/kg stood at 113% with bladder of the rat (setting [5]) and 32% in the test with bladder of the rat (read-out: % variation volume). The “activity on the urinary tract compared to the reference compounds (in words)” value in the test on bladder of the rat is given as “most active comparative product in these tests”.

Take `CCC(CC=Cc1ccc(Cl)c(Cl)c1)(NC)c1ccc(C)cc1` (centres unmarked) [Example 24, a-(3',4'-dichloro)cinnamyl-a-ethyl-N-methyl-p.methylbenzylamin]: the “p.o.: DE50” value in test [1] (p.o. route, value printed with a % sign) is on record as 73,5%. In addition, the IC50 at opiated mu receptor (setting [4]) turned out to be 21 nM; at opiated delta receptor, 1400 nM; at opiated kappa receptor it was 410 nM.

As to `CCC(N)(CC=Cc1ccccc1)c1ccc(Cl)cc1` (single isomer, unassigned; (-)) [Example 17B, (-)a-cinnamyl-a-ethyl-p.chlorobenzylamine], the “i.p.: % prot. (percentage of protected animals)” value in test [1] (50 mg/kg i.p., picrotoxine 24 mg/kg i.p. 30 min later, * p<0.05, ** p<0.01, *** p<0.001) was found to be 80%. Moreover, the “p.o.: % prot. (percentage of protected animals)” value in test [1] (100 mg/kg p.o., picrotoxine 24 mg/kg i.p. 60 min later, * p<0.05, ** p<0.01, *** p<0.001) is recorded as 50%. For the same molecule, the IC50 at opiated mu receptor (setting [4]) was determined as 11.4 nM.

For `CCC(N)(CC=Cc1ccc(Cl)c(Cl)c1)c1ccc(C)cc1` (centres unmarked) [Example 12, a-(3',4'-dichloro)cinnamyl-a-ethyl-p.methylbenzylamine], the ED50 in test [1] (ip, read-out: i.p.: DE50) was 37.3 mg/kg; in test [1] (po, read-out: p.o.: DE50), 50 mg/kg.

Consider `CCC(CC=Cc1cc(OC)c(OC)c(OC)c1)(c1ccccc1)N(C)C` (centres unmarked) [Example 37], for which the IC50 at opiated mu receptor (setting [4]) is 100 nM; at opiated delta receptor it was 150 nM; at opiated kappa receptor, 230 nM. In addition, the figures for the change in vivo at 5 mg/kg with bladder of the rat (setting [5]) and with bladder of the rat (read-out: % variation volume) were 188% and 53%, respectively.

`CCC(CC=Cc1ccccc1)(c1ccccc1)N(C)C` (centres unmarked) [Example 30, a-cinnamyl-N,N-dimethyl-a-ethyl-benzylamine]: the responders at 50 mg/kg in test [1] (setting [2]) was found to be 100%. Also, the responders at 100 mg/kg in test [1] (setting [3]) came out at 100%.

As to `CCC(CC=Cc1ccccc1)(c1ccsc1)N(C)C` (centres unmarked) [Example 67, a-cinnamyl-N,N-dimethyl-a-ethyl-3-thienylmethylamine], in test [1] (setting [2]), the responders at 50 mg/kg is 70%. Besides, the responders at 100 mg/kg in test [1] (setting [3]) is 100%.

As for `C=CCN(C)C(CC)(CC=Cc1ccccc1)c1ccccc1` (centres unmarked) [Example 38, N-allyl-a-cinnamyl-a-ethyl-N-methylbenzylamine], in test [1] (setting [2]), the responders at 50 mg/kg stood at 80%.

For `CCC(C[C@@H]1C[C@H]1c1ccccc1)(c1ccsc1)N(C)C` (relative stereo) [Example 68, trans N,N-dimethyl-a-ethyl-a-(2-phenyl-1-cyclopropylmethyl)-3-trienylmethylamine], the responders at 50 mg/kg in test [1] (setting [2]) came out at 100%.

With `CCC(CC=Cc1ccccc1)(c1ccc(Cl)cc1)N(C)C` (single isomer, unassigned; (+)) [Example 52, (+) a-cinnamyl-N,N-dimethyl-a-ethyl-p.chlorobenzylamine], the responders at 50 mg/kg in test [1] (setting [2]) was determined as 70%. Also, the responders at 100 mg/kg in test [1] (setting [3]) stood at 90%. In addition, the IC50 came to 7 nM at opiated mu receptor (setting [4]) and 99 nM at opiated kappa receptor. The “activity on the urinary tract compared to the reference compounds (in words)” value with bladder of the rat was “important activity”.

Consider `CCC(C[C@@H]1C[C@H]1c1ccccc1)(c1ccccn1)N(C)C` (relative stereo) [Example 58, trans N,N-dimethyl-a-ethyl-a-(2-phenyl-1-cyclopropylmethyl)-(2-pyridyl)methanamine], for which the responders at 50 mg/kg in test [1] (setting [2]) came out at 70%. Also, the responders at 100 mg/kg in test [1] (setting [3]) was 80%.

As to `CCC(CC=Cc1ccccc1)(c1ccc(C)cc1)N(C)C` (centres unmarked) [Example 33], the IC50 at opiated mu receptor (read-out: CI50 affinity mu rec.; inhibition of 50% of radioligand bonds) was 50 nM; on opiated delta receptor, 1230 nM; at opiated kappa receptor, 120 nM. Besides, in the test on bladder of the rat, the “activity on the urinary tract compared to the reference compounds (in words)” value is recorded as “important activity”.

Regarding `CCC(CC=Cc1ccccc1)(NC)c1ccccc1` (single isomer, unassigned; (-)) [Example 28, (-) a-cinnamyl-a-ethyl-N-methyl benzylamine], the responders at 50 mg/kg in test [1] (setting [2]) came to 100%. Further, the responders at 100 mg/kg in test [1] (setting [3]) was 100%.

Regarding `CCC(C[C@@H]1C[C@H]1c1ccccc1)(c1ccco1)N(C)C` (relative stereo) [Example 60, trans N,N-dimethyl-a-ethyl-a-(2-phenyl-1-cyclopropylmethyl)-2-furfurylamine], in test [1] (setting [2]), the responders at 50 mg/kg turned out to be 80%. Besides, in test [1] (setting [3]), the responders at 100 mg/kg was 60%.

Take `CC(N)(CC=Cc1ccc(Cl)c(Cl)c1)c1ccccc1` (centres unmarked) [Example 9, a-(3',4'-dichloro) cinnamyl-a-methylbenzylamine]: in test [1] (setting [2]), the responders at 50 mg/kg came to 100%.

`CCC(CC=Cc1ccccc1)(NC)c1ccc(Cl)c(Cl)c1` (centres unmarked) [Example 20, a-cinnamyl-a-ethyl-N-methyl-3,4-dichlorobenzylamine]: in test [1] (setting [3]), the responders at 100 mg/kg was found to be 80%.

On to `CCC(CC=Cc1cccs1)(c1ccccc1)N(C)C` (centres unmarked) [Example 55, N,N-dimethyl-a-ethyl-a-[30(2-thienyl)-2-propenyl]-benzylamine], for which the responders at 50 mg/kg in test [1] (setting [2]) stood at 70%. Besides, in test [1] (setting [3]), the responders at 100 mg/kg was 70%.

With `CCC(CC=Cc1cccs1)(c1ccco1)N(C)C` (centres unmarked) [Example 61, N,N-dimethyl-a-ethyl-a-[3-(2-thienyl)-2-propenyl]-2-furfurylamine], the responders at 50 mg/kg in test [1] (setting [2]) was found to be 50%.
